Source: article PMC6150173, “Tryptophan-Containing Cyclic Decapeptides with Activity against Plant Pathogenic Bacteria” (Molecules : A Journal of Synthetic Chemistry and Natural …, 2017)
Where “and” joins values, the source holds several entries; their conditions need not be identical. Equal entries are not always repeated. Peptide text beside a SMILES is read from it.

Columns and labels:
Type in all cases: cell-based
[1] = tested on: erythrocyte suspensions of human blood; assay: Hemolytic activity, hemoglobin release; conditions: human blood erythrocytes 5% v/v, absorbance 540 nm, percentage compared to melittin, three replicates; for Hemolysis (%) at 50 µM: peptide 50 μM (table prints 50 µM); for Hemolysis (%) at 125 µM: peptide 125 μM (table prints 125 µM)
Procedure: The hemolytic activity of the compounds was evaluated at 50 and 125 μM by determining hemoglobin release from erythrocyte suspensions of human blood (5% v/v) (Oxoid) using absorbance at 540 nm, as previously described. Three replicates for each peptide concentration were used.

[2] = tested on: Pseudomonas syringae pv. syringae EPS94; assay: Antibacterial activity (MIC), in vitro growth inhibition; conditions: Table S1, MIC range
Procedure: (§1) Erwinia amylovora PMV6076 (Institut National de la Recherche Agronomique, Angers, France), Pseudomonas syringae pv. syringae EPS94 (Institut de Tecnologia Agroalimentària, Universitat de Girona, Spain), and Xanthomonas axonopodis pv. vesicatoria 2133-2 (Instituto Valenciano de Investigaciones Agrarias, Valencia, Spain) were used as bacterial strains. They were stored and cultivated as previously described.
(§2) The minimum inhibitory concentration (MIC) was analyzed as previously described at 0.8, 1.6, 3.1, 6.2, 12.5, 25 and 50 μM [20].

[3] = tested on: Erwinia amylovora PMV6076; assay: as above; conditions: Table S1, MIC range
Procedure: as §1, §2

[4] = tested on: Xanthomonas axonopodis pv. vesicatoria 2133-2; conditions: Table S1, MIC range
Procedure: as §1, §2

| Structure (SMILES) | Hemolysis (%) at 50 µM [1] | Hemolysis (%) at 125 µM [1] | MIC Pss [2] | MIC Ea [3] | MIC Xav [4] |
| --- | --- | --- | --- | --- | --- |
| CC(C)C[C@@H]1NC(=O)[C@H](CCCCN)NC(=O)[C@H](CC(C)C)NC(=O)[C@H](Cc2c[nH]c3ccccc23)NC(=O)[C@H](CCCCN)NC(=O)[C@H](CC(C)C)NC(=O)[C@H](CCCCN)NC(=O)[C@H](CCCCN)NC(=O)[C@H](CCCCN)NC(=O)[C@H](CCC(N)=O)NC1=O [BPC072W, c(KKKLKWLKLQ)] (cyclo(KKKLKWLKLQ)) | 7% | 9% and below 20% | 3.1 to 6.2 µM | 12.5 to 25 µM | 1.6 to 3.1 µM |
| CC(C)C[C@@H]1NC(=O)[C@H](CCCCN)NC(=O)[C@H](CCCCN)NC(=O)[C@H](CCC(N)=O)NC(=O)[C@H](CC(C)C)NC(=O)[C@H](CCCCN)NC(=O)[C@H](CC(C)C)NC(=O)[C@H](Cc2c[nH]c3ccccc23)NC(=O)[C@H](CCCCN)NC(=O)[C@H](CCCCN)NC1=O [BPC074W, c(KKLKKWLKLQ)] (cyclo(KKLKKWLKLQ)) | 39% | 50% | 6.2 to 12.5 µM | 12.5 to 25 µM | 1.6 to 3.1 µM |
| CC(C)C[C@@H]1NC(=O)[C@H](CCCCN)NC(=O)[C@H](CCC(N)=O)NC(=O)[C@H](CC(C)C)NC(=O)[C@H](CCCCN)NC(=O)[C@H](CC(C)C)NC(=O)[C@H](Cc2c[nH]c3ccccc23)NC(=O)[C@H](CCCCN)NC(=O)[C@H](CCCCN)NC(=O)[C@H](CCCCN)NC1=O [BPC076W, c(KLKKKWLKLQ)] (cyclo(KKKWLKLQKL)) | 15% | 21% | 6.2 to 12.5 µM | 6.2 to 12.5 µM | 1.6 to 3.1 µM |
| CC(C)C[C@@H]1NC(=O)[C@H](CCC(N)=O)NC(=O)[C@H](CC(C)C)NC(=O)[C@H](CCCCN)NC(=O)[C@H](CC(C)C)NC(=O)[C@H](Cc2c[nH]c3ccccc23)NC(=O)[C@H](CCCCN)NC(=O)[C@H](CCCCN)NC(=O)[C@H](CCCCN)NC(=O)[C@H](CCCCN)NC1=O [BPC078W, c(LKKKKWLKLQ)] (cyclo(KKKKWLKLQL)) | 3% | 6% | 6.2 to 12.5 µM | 25 to 50 µM | 0.8 to 1.6 µM |
| CC(C)C[C@@H]1NC(=O)[C@H](CCCCN)NC(=O)[C@H](CCCCN)NC(=O)[C@H](Cc2c[nH]c3ccccc23)NC(=O)[C@H](CC(C)C)NC(=O)[C@H](CC(C)C)NC(=O)[C@H](CCCCN)NC(=O)[C@H](CCCCN)NC(=O)[C@H](CCCCN)NC(=O)[C@H](CCC(N)=O)NC1=O [BPC080W, c(KKKLLWKKLQ)] (cyclo(KKKLLWKKLQ)) | 3% | 4% | 6.2 to 12.5 µM | 12.5 to 25 µM | 0.8 to 1.6 µM |
| CC(C)C[C@@H]1NC(=O)[C@H](CCCCN)NC(=O)[C@H](CCCCN)NC(=O)[C@H](Cc2c[nH]c3ccccc23)NC(=O)[C@H](CC(C)C)NC(=O)[C@H](CCCCN)NC(=O)[C@H](CC(C)C)NC(=O)[C@H](CCCCN)NC(=O)[C@H](CCCCN)NC(=O)[C@H](CCC(N)=O)NC1=O [BPC082W, c(KKLKLWKKLQ)] (cyclo(KKLKLWKKLQ)) | 26% | 34% | 6.2 to 12.5 µM | 12.5 to 25 µM | 1.6 to 3.1 µM |
| CC(C)C[C@@H]1NC(=O)[C@H](CCCCN)NC(=O)[C@H](CCCCN)NC(=O)[C@H](Cc2c[nH]c3ccccc23)NC(=O)[C@H](CC(C)C)NC(=O)[C@H](CCCCN)NC(=O)[C@H](CCCCN)NC(=O)[C@H](CC(C)C)NC(=O)[C@H](CCCCN)NC(=O)[C@H](CCC(N)=O)NC1=O [BPC084W, c(KLKKLWKKLQ)] (cyclo(KKLQKLKKLW)) | 54% | 60% | 12.5 to 25 µM | 12.5 to 25 µM | 1.6 to 3.1 µM |
| CC(C)C[C@@H]1NC(=O)[C@H](CCC(N)=O)NC(=O)[C@H](CC(C)C)NC(=O)[C@H](CCCCN)NC(=O)[C@H](CCCCN)NC(=O)[C@H](Cc2c[nH]c3ccccc23)NC(=O)[C@H](CC(C)C)NC(=O)[C@H](CCCCN)NC(=O)[C@H](CCCCN)NC(=O)[C@H](CCCCN)NC1=O [BPC086W, c(LKKKLWKKLQ)] (cyclo(KKKLWKKLQL)) | 4% | 8% and ≤ 8% | 3.1 to 6.2 µM | 6.2 to 12.5 µM | 0.8 to 1.6 µM |
| CC(C)C[C@@H]1NC(=O)[C@H](CCCCN)NC(=O)[C@H](CCCCN)NC(=O)[C@H](Cc2c[nH]c3ccccc23)NC(=O)[C@H](CCCCN)NC(=O)[C@H](CC(C)C)NC(=O)[C@H](CC(C)C)NC(=O)[C@H](CCCCN)NC(=O)[C@H](CCCCN)NC(=O)[C@H](CCC(N)=O)NC1=O [BPC088W, c(KKLLKWKKLQ)] (cyclo(KKLLKWKKLQ)) | 14% | 19% | 6.2 to 12.5 µM | 12.5 to 25 µM | 1.6 to 3.1 µM |
| CC(C)C[C@@H]1NC(=O)[C@H](CCCCN)NC(=O)[C@H](CCCCN)NC(=O)[C@H](Cc2c[nH]c3ccccc23)NC(=O)[C@H](CCCCN)NC(=O)[C@H](CC(C)C)NC(=O)[C@H](CCCCN)NC(=O)[C@H](CC(C)C)NC(=O)[C@H](CCCCN)NC(=O)[C@H](CCC(N)=O)NC1=O [BPC090W, c(KLKLKWKKLQ)] (cyclo(KKLQKLKLKW)) | 9% | 15% | 6.2 to 12.5 µM | 12.5 to 25 µM | 1.6 to 3.1 µM |
| CC(C)C[C@@H]1NC(=O)[C@H](CCCCN)NC(=O)[C@H](CCCCN)NC(=O)[C@H](Cc2c[nH]c3ccccc23)NC(=O)[C@H](CCCCN)NC(=O)[C@H](CCCCN)NC(=O)[C@H](CC(C)C)NC(=O)[C@H](CC(C)C)NC(=O)[C@H](CCCCN)NC(=O)[C@H](CCC(N)=O)NC1=O [BPC094W, c(KLLKKWKKLQ)] (cyclo(KKLQKLLKKW)) | 35% | 42% | 6.2 to 12.5 µM | 25 to 50 µM | 3.1 to 6.2 µM |
| CC(C)C[C@@H]1NC(=O)[C@H](CCCCN)NC(=O)[C@H](CC(C)C)NC(=O)[C@H](CCC(N)=O)NC(=O)[C@H](CC(C)C)NC(=O)[C@H](CCCCN)NC(=O)[C@H](CCCCN)NC(=O)[C@H](Cc2c[nH]c3ccccc23)NC(=O)[C@H](CCCCN)NC(=O)[C@H](CCCCN)NC1=O [BPC096W, c(LKLKKWKKLQ)] (cyclo(KKLQLKLKKW)) | 10% | 15% | 6.2 to 12.5 µM | 12.5 to 25 µM | 1.6 to 3.1 µM |
| CC(C)C[C@@H]1NC(=O)[C@H](CCCCN)NC(=O)[C@H](CCCCN)NC(=O)[C@H](Cc2c[nH]c3ccccc23)NC(=O)[C@H](CCCCN)NC(=O)[C@H](CCCCN)NC(=O)[C@H](CCCCN)NC(=O)[C@H](CC(C)C)NC(=O)[C@H](CC(C)C)NC(=O)[C@H](CCC(N)=O)NC1=O [BPC098W, c(LLKKKWKKLQ)] (cyclo(KKKWKKLQLL)) | 12% | 18% and below 20% | 3.1 to 6.2 µM | 12.5 to 25 µM | 1.6 to 3.1 µM |
| CC(C)C[C@@H]1NC(=O)[C@H](CCCCN)NC(=O)[C@H](CCCCN)NC(=O)[C@H](CCCCN)NC(=O)[C@H](CCC(N)=O)NC(=O)[C@H](CCCCN)NC(=O)[C@H](CC(C)C)NC(=O)[C@H](CC(C)C)NC(=O)[C@H](Cc2c[nH]c3ccccc23)NC(=O)[C@H](CCCCN)NC1=O [BPC102W, c(KKKLKWLLKQ)] (cyclo(KKKLKWLLKQ)) | 12% | 17% | 3.1 to 6.2 µM | 12.5 to 25 µM | 6.2 to 12.5 µM |
| CC(C)C[C@@H]1NC(=O)[C@H](CCCCN)NC(=O)[C@H](CCCCN)NC(=O)[C@H](CCC(N)=O)NC(=O)[C@H](CCCCN)NC(=O)[C@H](CC(C)C)NC(=O)[C@H](CC(C)C)NC(=O)[C@H](Cc2c[nH]c3ccccc23)NC(=O)[C@H](CCCCN)NC(=O)[C@H](CCCCN)NC1=O [BPC104W, c(KKLKKWLLKQ)] (cyclo(KKLKKWLLKQ)) | 2% | 3% | 6.2 to 12.5 µM | 12.5 to 25 µM | 6.2 to 12.5 µM |
| CC(C)C[C@@H]1NC(=O)[C@H](CCCCN)NC(=O)[C@H](CCC(N)=O)NC(=O)[C@H](CCCCN)NC(=O)[C@H](CC(C)C)NC(=O)[C@H](CC(C)C)NC(=O)[C@H](Cc2c[nH]c3ccccc23)NC(=O)[C@H](CCCCN)NC(=O)[C@H](CCCCN)NC(=O)[C@H](CCCCN)NC1=O [BPC106W, c(KLKKKWLLKQ)] (cyclo(KKKWLLKQKL)) | 2% | 2% | 3.1 to 6.2 µM | 25 to 50 µM | 3.1 to 6.2 µM |
| CC(C)C[C@@H]1NC(=O)[C@H](CCC(N)=O)NC(=O)[C@H](CCCCN)NC(=O)[C@H](CC(C)C)NC(=O)[C@H](CC(C)C)NC(=O)[C@H](Cc2c[nH]c3ccccc23)NC(=O)[C@H](CCCCN)NC(=O)[C@H](CCCCN)NC(=O)[C@H](CCCCN)NC(=O)[C@H](CCCCN)NC1=O [BPC108W, c(LKKKKWLLKQ)] (cyclo(KKKKWLLKQL)) | 4% | 5% and ≤ 8% | 1.6 to 3.1 µM | 6.2 to 12.5 µM | 1.6 to 3.1 µM |
